Source: patent US20230381174A1, “THIONOESTER-DERIVATIVE OF RABEXIMOD FOR THE TREATMENT OF INFLAMMATORY AND AUTOIMMUNE DISORDERS” (Vironova Thionationl AB, priority 2020, published 2023)

What was measured:
[1] = test system: Reactive Oxygen Species (ROS) production in PBMCs; assay: Isoluminol assay: ROS production in PMA-activated PBMCs; type: cell-based, human; details: PBMCs activated with PMA at 30 ng/ml; luminescence measured over 25 minutes; FIGS. 1 and 2
From the text: Oxygen metabolism has an important role in the pathogenesis of both rheumatoid arthritis and multiple sclerosis. Reactive oxygen species (ROS) produced in the course of cellular oxidative phosphorylation, and by activated phagocytic cells during oxidative bursts, exceed the physiological buffering capacity and result in oxidative stress. The excessive production of ROS can damage protein, lipids, nucleic acids, and matrix components. ROS also serve as important intracellular signaling molecules that amplify the synovial inflammatory-proliferative response.
Frozen PBMCs, isolated from human blood (Blodcentralen, Lund, Sweden) through gradient centrifugation using Ficoll, were thawed quickly, activated with PMA at 30 ng/ml and treated with Rabeximod or the inventive compound, at different concentrations ranging from 12.5 μg/ml with 1:2 dose titrations over 8 steps. Controls included were DMSO control, PMA at 30 ng/ml and 0 μg/ml of test items. […] Cell concentration was determined using a Scepter cell counter (Millipore Merck, MA, USA) and diluted at 2×10^6 cells/ml when added to the assay plate. The luminescence signal was measured over 25 minutes.
ROS production was investigated after treatment with the inventive compound or Rabeximod at different concentrations ranging from 12.5 μg/ml with 1:2 dose titrations over 8 steps. Luminescence signal was measured over 25 minutes.

[2] = test system: collagen antibody induced arthritis (CAIA); assay: Collagen antibody induced arthritis (CAIA) mouse model; type: in vivo, mice (DBA/1); details: for histological (IHC) score of front paws compared with vehicle: 20 mg/kg, at study termination, score 0-3, FIG. 8; for adverse effects from treatments: CAIA mice, any of the doses tested (5, 10, 20 mg/kg s.c.); for disease severity (macroscopic arthritis score) compared with vehicle: not significant
From the text: The collagen antibody induced arthritis (CAIA) arthritis in mice is a model independent of both B and T cells. CAIA is an acute model of arthritis and the disease is induced with antibodies to collagen type II. The antibodies bind to cartilage, leading to activation of the immune system followed by recruiting of macrophages and granulocytes to the joints. After an LPS boost at day five, disease progression starts and reaches a maximum around day 15. CAIA model: Mice (DBA/1, 8-10 weeks old) were weighed at day −1 for determination of mean weight of animals in the experiment and for composition of groups. Groups were mixed within cages to avoid cage effects. The mice were injected i.v. with a cocktail of four (4) monoclonal antibodies against collagen type II (2 mg/mouse) on day 0. Day 5 the mice were injected with LPS (50 μg/mouse) i.p., in order to boost the disease. Dose preparation of test items were performed daily in corn oil. Disease was evaluated daily from day 3 in a blinded fashion using a macroscopic scoring system of the four limbs ranging from 0 to 15 (1 point for each swollen or red toe, 1 point for a swollen or red mid foot digit or knuckle, 5 points for a swollen ankle) resulting in a maximum total score of 60 for each mouse. Due to ethical restrictions, animals with a score exceeding 45 were removed from the experiment. Immunohistochemistry: Front paws from animals, in the vehicle, Rabeximod (20 mg/kg) and the inventive compound (20 mg/kg) groups, were collected at termination of the animals. The paws were immediately transferred to 4% formaldehyde containing vials for immersion fixation. The tissues were fired for 24 hours and then transferred to 70% EtOH and stored at +4° C. until staining. Paws were decalcified, paraffin embedded, sectioned and stained for hematoxylin and eosin (H&E). Resulting slides were photographed at high resolution. Images were used for morphology analysis to study cartilage destruction and infiltration of inflammatory cells in the joints. An overall assessment for the whole paw were scored (0-3), including evaluation of synovial inflammation, synovial pannus formation and bone destruction. Graphs and statistical analysis were performed using Prism 8 for Mac OS X (GraphPad Software, San Diego, CA, USA). Results are presented as mean values±SEM, if not otherwise stated. Statistics were calculated using a two-tailed non-parametric Mann-Whitney test where p<0.05 was considered significant. * represents a p-value<0.05, ** represents a p-value<0.01 and *** represents a p-value<0.001.

[3] = test system: IL-6; assay: LPS assay: IL-6 release in whole blood; type: cell-based, human; details: LPS 500 ng/ml
Experimental: (§1) Inflammation can be induced in vitro by stimulation with LPS, manifested by the release of various cytokines. […] TNF-α, IL1β and IL-6 are important cytokines in the pathogenesis of RA and MS and therefore selected in this assay.
(§2) Whole blood was collected from an adult volunteer in Heparin tubes. LPS stimulation started within 60 minutes of blood draw. The blood was diluted with RPMI and then stimulated with LPS and incubated with different concentrations of either Rabeximod or the inventive compound. The samples were centrifuged and plasma harvested and analysed on Luminex to measure cytokines.
(§3) The release of cytokines and chemokines was investigated after stimulation of whole blood with LPS, and treatment with either the inventive compound or Rabeximod.

[4] = test system: IL-1β; assay: LPS assay: IL-1β release in whole blood; type: cell-based, human; details: LPS 500 ng/ml
Experimental: as §1, §2, §3

[5] = test system: TNF-α; assay: LPS assay: TNF-α release in whole blood; type: cell-based, human; details: LPS 500 ng/ml
Experimental: as §1, §2, §3

[6] = test system: pristane-induced arthritis (PIA); assay: Pristane-induced arthritis (PIA) rat model; type: in vivo; details: 20 mg/kg s.c. days 5, 7, 9, 11, 13, 15
From the text: Pristane-induced arthritis (PIA) in rats is an animal model that mimics the criteria used for diagnosis of rheumatoid arthritis (RA). PIA is one of the most reproducible models of RA with high incidence and little variation in severity. Disease is characterized by a pronounced T cell dependent inflammatory response resulting in inflammation of peripheral joints. Disease is induced with a single injection of pristane and has a highly reproducible onset of arthritis between day 8-12. The most severe phase of arthritis is often between day 15-25 after induction and experiment can be terminated after 25-30 days. For disease induction rats were anaesthetized with IsoFlo vet (3%) and oxygen. The root of the tail was cleaned with EtOH and pristane was injected subcutaneously (s.c.) (volume 200 μl) approximately 0.5 cm from the root of the tail. A slight pressure was put on the injection site for 10 seconds after injections to prevent leakage of oil. Rats were removed from anaesthetics and the breathing was monitored until recovery was ensured. […] Disease was evaluated 3 times per week in a blinded fashion from day 10 using a macroscopic scoring system of the four limbs ranging from 0 to (1 point for each swollen or red toe, 1 point for a swollen or red mid foot digit or knuckle, […]) resulting in a maximum total score of 60 for each rat. […]

[7] = lower concentrations (from 312.5 nM, below 5000 nM)

| Compound | concentration that inhibits ROS production completely [1] | histological (IHC) score of front paws compared with vehicle [2] | adverse effects from treatments [2] | disease severity (macroscopic arthritis score) compared with vehicle ([2]; all three doses (5, 10 and 20 mg/kg) s.c. every other day from day 5, six administrations, FIG. 7) | level of IL-6 compared to Rabeximod ([3]; compound at 5000 nM, FIG. 4) | level of IL-6 compared to Rabeximod [3, 7] | melting point | level of IL-1β compared to Rabeximod ([4]; compound at 5000 nM, FIG. 5) | level of IL-1β compared to Rabeximod [4, 7] | level of TNF-α compared to Rabeximod ([5]; compound at 5000 nM, FIG. 3) | level of TNF-α compared to Rabeximod [5, 7] | dose-response of arthritis severity compared to Rabeximod ([2]; 5, 10 and 20 mg/kg s.c.) | disease severity (macroscopic arthritis score) compared with vehicle ([2]; 10 and 20 mg/kg s.c. every other day from day 5, six administrations, FIG. 6) | RA score (macroscopic arthritis score) ([6]; all study time points measured, FIG. 9) | efficacy during the most severe phase of arthritis ([6]; compared with Rabeximod) |
| --- | --- | --- | --- | --- | --- | --- | --- | --- | --- | --- | --- | --- | --- | --- | --- |
| Cc1cc2nc3c4cc(Cl)ccc4n(CC(=O)NCCN(C)C)c3nc2cc1C [Rabeximod, 2-(9-chloro-2,3-dimethyl-6H-indolo[2,3-b]quinoxalin-6-yl)-N-(2-(dimethylamino)ethyl)acetamide] | 12.5 µg/mL | No significant difference | No adverse effects | small decrease in disease severity |  |  |  |  |  |  |  |  |  |  |  |
| Cc1cc2nc3c4cc(Cl)ccc4n(CC(=S)NCCN(C)C)c3nc2cc1C [inventive compound, 2-(9-chloro-2,3-dimethyl-6H-indolo[2,3-b]quinoxalin-6-yl)-N-(2-(dimethylamino)ethyl)ethanethioamide] | 6.25 µg/mL | significantly lower | No adverse effects |  | significantly lower | trend of reduced cytokines levels | 184 to 188 °C | significantly lower | trend of reduced cytokines levels | significantly lower | trend of reduced cytokines levels | clear dose-response | small decrease in disease severity | slightly lower | better efficacy than Rabeximod |
